Where a name gives a salt, the structure may show the parent alone. Read-outs that look alike come from different tables or passages of the source. One block for each molecule: values may come before it.
Columns and labels:
[1] = system: BMP-induced phosphorylation of SMAD1/5/8; experiment: BMP4-induced phosphorylation of SMAD1/5/8, cytoblot (cellular ELISA); assay type: cell-based, murine; settings: Mus musculus
Experimental: Murine pulmonary artery smooth muscle cells were isolated, explanted and cultured as previously described (see […] et al. Am. J. Physiol. Lung Cell Mol. Physiol. 280:[…], 2001) and then grown to confluence in 96 well tissue culture plates. Cells were incubated in serum-free medium for 18 h, and then incubated with recombinant BMP2, BMP4, BMP6, BMP9, GDF5, TGF-β, or Activin A ligands (R&D Systems, Minneapolis, Minn.) at varying concentrations in duplicate for 20 minutes. […] Specificity for BMP-mediated signaling was determined separately using a modification of the cellular ELISA technique assaying for the activation of SMAD2 or SMAD3 via TGF-β, or Activin A. A corresponding IC50 was calculated for the effects of these compounds upon those signaling pathways.

[2] = system: PDGFR-mediated signaling; experiment: PDGF-induced AKT phosphorylation, cellular ELISA in PaSMCs; assay type: cell-based, murine; settings: Mus musculus, PASMC; compounds 10 min, then PDGF 30 min; FIG. 2; read-out: functional IC50, PDGF-induced AKT phosphorylation
Experimental: To test the relative effects of dorsomorphin and structurally-related compounds upon PDGFR-mediated signaling, PDGF-induced AKT phosphorylation was measured by cellular ELISA via the detection of phospho-AKT in PaSMCs treated with compounds for 10 min. followed by PDGF for 30 min.

[3] = Microsomal stability in pooled mouse liver microsomes; assay type: in vitro ADME; settings: 0.5 mg/mL microsome protein, 1 mM NADPH
Experimental: Test compound (3 μM final concentration) along with 0.5 mg/mL microsome protein and 1 mM NADPH was incubated for 0, 5, 15, 30 and 60 min. Incubation of test compound and microsomes in the absence of NADPH served as a negative control. The samples were quenched with methanol and centrifuged for 20 min at 2500 rpm to precipitate proteins. Sample supernatants were analyzed (N=3) by LC/MS. The ln peak area ratio (compound peak area/internal standard peak area) was plotted against time and the slope of the line determined to give the elimination rate constant [k=(−1)(slope)]. The half life (t1/2 in minutes) and the in vitro intrinsic clearance (CLint in μL/min/mg protein) values were calculated according to the following equations, where V=incubation volume in μL/mg protein: […]

[4] = Serum iron levels (Ferene S assay) after IP injections; assay type: in vivo, C57BL/6 mice; settings: two IP injections 10 mg/kg 12 h apart; 24 h after first injection
Experimental: In C57BL/6 mice, two IP injections of dorsomorphin (10 mg/kg) 12 h apart increased serum iron levels, measured by the Ferene S assay (ThermoFisher Scientific, Waltham, Mass.) measured 24 h after first injection by over 60%. (see FIG. 4; n=8 vehicle, n=7 dorsomorphin, P<0.001). Results are expressed as mean±SD.

[5] = Plasma pharmacokinetics after single bolus intraperitoneal administration; assay type: in vivo, C57B16 mice; settings: C57B16, mouse, Table 3, male mice, IP 3 mg/kg; for Tmax: read-out: tmax
Experimental: (§1) The pharmacokinetics of 13.HCl was evaluated after a single bolus intraperitoneal administration (3 mg/kg) in male and female C57B16 mice on a commercial rodent diet and water ad libitum prior to the study. Compound plasma levels were determined by LC-MS/MS and the pharmacokinetic parameters were determined using WinNonlin software (Pharsight Co., Mountain View, Calif.). Dosing solutions (0.6 mg/mL) were prepared in a vehicle comprising 2% hydropropyl-β-cyclodextrin in phosphate-buffered saline (PBS). Each time point (pre-dose, 5, 10, 15, 30, 60, 120, 240, 480, 1440 min post-dose) was dosed as N=3/sex. Each blood sample was collected via cardiac puncture after euthanasia with CO2 and placed in chilled tubes containing sodium heparin. Samples were centrifuged at 4° C. at 13,000 rpm for 5 min followed by extracted with acetonitrile and then analyzed.
The pharmacokinetics of 44.HCl and 37.HCl were evaluated after a single bolus intraperitoneal administration (3 mg/kg) in male C57B16 mice on a commercial rodent diet and water ad libitum prior to the study. Compound plasma levels were determined by LC-MS/MS and the pharmacokinetic parameters were determined using WinNonlin software (Pharsight Co., Mountain View, Calif.). Dosing solutions (0.6 mg/mL) were prepared in a vehicle comprising 2% hydropropyl-β-cyclodextrin in phosphate-buffered saline (PBS). Each time point (pre-dose, 5, 10, 15, 30, 60, 120, 240, 480, 1440 min post-dose) was dosed as
N=3/sex. Each blood sample was collected via cardiac puncture after euthanasia with CO2 and placed in chilled tubes containing sodium heparin. Samples were centrifuged at 4° C. at 13,000 rpm for 5 min followed by extracted with acetonitrile and then analyzed.

[6] = Plasma pharmacokinetics after single oral administration; assay type: in vivo; settings: C57B16, mouse, oral 3 mg/kg
Experimental: as §1, with “compound 70” for “13.HCl”, “oral” for “bolus intraperitoneal”, “male” for “male and female”, “(pre-dose,” for “(pre-dose, 5, 10,”, “360, 480 and” for “480,”, “N=3.” for “N=3/sex.”
as §1, with “oral” for “bolus intraperitoneal”, “male” for “male and female”, “(pre-dose,” for “(pre-dose, 5, 10,”, “360, 480 and” for “480,”, “N=3.” for “N=3/sex.”

[7] = system: IL6-induced hepcidin expression in HepG2 cells; experiment: IL6-induced hepcidin expression in HepG2 hepatoma cells; assay type: cell-based, human; settings: pretreatment; data not shown
Experimental: HepG2 cells pretreated with compound 13 (5-625 nM) or vehicle for 30 min. were incubated with IL6 (50 ng/mL) for 1.5 h. Cells were harvested, and hepcidin mRNA and 18S rRNA levels were measured by quantitative RT-PCR. Changes in gene expression were normalized to 18S ribosomal RNA levels using the relative cycle threshold method.

[8] = approximate IC50, cellular ELISA, murine pulmonary artery smooth muscle cells, read-out: IC50 for inhibition of BMP-induced phosphorylation of SMAD1/5/8

Compound: c1cc(-c2cnn3cc(-c4ccc(OCCN5CCCCC5)cc4)cnc23)ccn1 [Dorsomorphin, reference compound]
IC50 ([1]; FIG. 1, approximate, read-out: functional IC50, BMP4-induced SMAD1/5/8 phosphorylation): ~400 nM
IC50 [2]: ~500 nM
half-life at 3 μM ([3]; read-out: half-life (t1/2) in mouse liver microsomes): 10.4 min
microsomal CLint at 3 μM ([3]; read-out: intrinsic clearance (CLint) in mouse liver microsomes): 133 ± 6.6 µL/min/mg
increase of serum iron levels [4]: over 60%

Compound: Cl.c1ccc2c(-c3cnn4cc(-c5ccc(N6CCNCC6)cc5)cnc34)ccnc2c1 [13•HCl, 4-[6-(4-piperazin-1-ylphenyl)pyrazolo[1,5-a]pyrimidin-3-yl]quinoline hydrochloride salt]
AUC(0-inf) ([6]; Table 5, male mice): 919 ng·h/mL
Cmax ([6]; Table 5, male mice): 690 nM
Tmax ([6]; Table 5, male mice): 60 min
half-life ([6]; Table 5, male mice): 66 min

Compound: C[C@@H]1C[C@@H]([C@H](O)CC2CC(=O)NC(=O)C2)C(=O)[C@@H](C)C1 [cycloheximide, reference compound]
ability of IL6 to induce hepcidin gene expression [7]: did not block the ability of IL6 to induce hepcidin gene expression

Compound: COc1ccc(-c2cnc3c(-c4ccncc4)cnn3c2)cc1 [4-OMe-Ph, 4-Py, H, N, N, 6-(4-Methoxyphenyl)-3-pyridin-4-yl-pyrazolo[1,5-a]pyrimidine]
IC50 [1, 8]: > 1000 nM

Other lines, results leading:

IC50 [1, 8]: < 500 nM
Compound: COc1ccc(-c2ccc3c(-c4ccnc5ccccc45)cnn3c2)cc1 [4-OMe-Ph, 4-quinolinyl, H, CH, N, 4-[6-(4-Methoxyphenyl)pyrazolo[1,5-a]pyridin-3-yl]quinoline]

IC50 [1, 8]: > 20000 nM
Compound: COC(=O)c1cc(-c2ccnc3ccccc23)c2ncc(-c3ccc(OC)cc3)cn12 [4-OMe-Ph, 4-quinolinyl, H, N, CCO2Me, Methyl 3-(4-methoxyphenyl)-8-quinolin-4-yl-pyrrolo[1,2-a]pyrimidine-6-carboxylate]

AUC(0-inf) [5]: 583 ng·h/mL
Cmax [5]: 660 nM
half-life [5]: 84 min
Tmax [5]: < 15 min
Compound: COC1(c2ccc(-c3cnc4c(-c5ccnc6ccccc56)cnn4c3)cc2)CCNCC1 [44•HCl, 4-(6-(4-(4-methoxypiperidin-4-yl)phenyl)pyrazolo[1,5-a]pyrimidin-3-yl)quinoline]

AUC(0-inf) ([6]; Table 4, male mice): 143 ng·h/mL
Cmax ([6]; Table 4, male mice): 100 nM
Tmax ([6]; Table 4, male mice): 15 min
half-life ([6]; Table 4, male mice): 102 min
Compound: OC1(c2ccc(-c3cnc4c(-c5ccnc6ccccc56)cnn4c3)cc2)CCNCC1 [Compound 70, 4-(4-(3-(quinolin-4-yl)pyrazolo[1,5-a]pyrimidin-6-yl)phenyl)piperidin-4-ol]

AUC(0-inf) [5]: 207 ng·h/mL
Cmax [5]: 290 nM
half-life [5]: 132 min
Tmax [5]: < 15 min
Compound: c1ccc2c(-c3cnn4cc(-c5ccc(N6CCNCC6)cc5)ccc34)ccnc2c1 [37•HCl, 4-[6-(4-Piperazin-1-ylphenyl)pyrazolo[1,5-a]pyridin-3-yl]-quinoline]

IC50 [1, 8]: > 20000 nM
Compound: COc1ccc(-c2cnc3c(-c4ccnc5ccccc45)ccn3c2)cc1 [4-OMe-Ph, 4-quinolinyl, H, N, CH, 4-[3-(4-Methoxyphenyl)pyrrolo[1,2-a]pyrimidin-8-yl]quinoline]
